Data from ChEMBL document CHEMBL1135849, “Hydroxamate based inhibitors of adenylyl cyclase. Part 1: the effect of acyclic linkers on P-site binding” (Bioorg Med Chem Lett, 2002).

Target: Adenylate cyclase type 5 (Homo sapiens, UniProt O95622)
Test: Inhibition of recombinant human adenylate cyclase 5 expressed in HEK293 cells
Type: cell-based

Sequence of Adenylate cyclase type 5 (O95622 whole entry): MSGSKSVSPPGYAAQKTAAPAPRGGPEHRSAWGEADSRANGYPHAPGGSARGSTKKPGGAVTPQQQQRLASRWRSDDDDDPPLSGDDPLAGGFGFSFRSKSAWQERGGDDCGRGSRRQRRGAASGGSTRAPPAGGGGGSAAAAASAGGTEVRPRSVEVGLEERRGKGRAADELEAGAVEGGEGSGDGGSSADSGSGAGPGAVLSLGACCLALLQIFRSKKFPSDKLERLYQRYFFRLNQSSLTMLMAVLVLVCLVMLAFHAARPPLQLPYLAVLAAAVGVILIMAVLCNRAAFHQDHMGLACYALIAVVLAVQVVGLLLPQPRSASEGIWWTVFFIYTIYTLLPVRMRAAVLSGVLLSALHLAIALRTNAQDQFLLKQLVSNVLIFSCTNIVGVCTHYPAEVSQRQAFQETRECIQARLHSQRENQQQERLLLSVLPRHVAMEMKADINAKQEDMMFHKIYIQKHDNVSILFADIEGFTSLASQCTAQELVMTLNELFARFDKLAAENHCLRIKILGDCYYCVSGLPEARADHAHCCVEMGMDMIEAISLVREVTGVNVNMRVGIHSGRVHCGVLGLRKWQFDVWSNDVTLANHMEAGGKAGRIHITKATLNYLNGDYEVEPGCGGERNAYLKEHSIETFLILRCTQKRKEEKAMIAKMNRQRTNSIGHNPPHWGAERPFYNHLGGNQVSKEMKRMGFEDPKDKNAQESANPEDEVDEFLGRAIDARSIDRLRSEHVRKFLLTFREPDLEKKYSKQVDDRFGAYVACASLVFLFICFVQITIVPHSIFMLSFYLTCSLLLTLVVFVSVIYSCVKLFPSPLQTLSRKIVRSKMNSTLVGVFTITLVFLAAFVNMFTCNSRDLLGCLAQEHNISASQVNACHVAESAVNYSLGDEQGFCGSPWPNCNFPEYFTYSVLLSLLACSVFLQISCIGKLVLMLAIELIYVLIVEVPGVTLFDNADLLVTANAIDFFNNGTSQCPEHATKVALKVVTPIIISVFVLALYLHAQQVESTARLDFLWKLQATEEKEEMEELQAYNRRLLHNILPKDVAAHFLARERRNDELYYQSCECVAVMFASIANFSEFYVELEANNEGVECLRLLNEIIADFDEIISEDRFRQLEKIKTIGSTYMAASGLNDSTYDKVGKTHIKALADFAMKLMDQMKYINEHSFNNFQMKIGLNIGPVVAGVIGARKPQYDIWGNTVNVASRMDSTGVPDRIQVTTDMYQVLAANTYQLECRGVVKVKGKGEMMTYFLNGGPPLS

Row | SMILES | IC50
1 | CCOC(=O)CCCCCn1cnc2c(N)ncnc21 | > 200 µM
2 | COC(=O)CNCCn1cnc2c(N)ncnc21 | > 200 µM
3 | Nc1ncnc2c1ncn2CCNCC(=O)O | > 200 µM
4 | COC(=O)CN(CCn1cnc2c(N)ncnc21)C(C)=O | > 200 µM
5 | Nc1ncnc2c1ncn2CCCCC(=O)O | > 200 µM
6 | Nc1ncnc2c1ncn2CCCCCCC(=O)O | > 200 µM
7 | Nc1ncnc2c1ncn2CCC(=O)NO | > 200 µM
8 | CC(C)(C)OC(=O)N(CCn1cnc2c(N)ncnc21)CC(=O)NO | > 200 µM
9 | COC(=O)CNCCCn1cnc2c(N)ncnc21 | > 200 µM
10 | CC(C)(C)OC(=O)N(CCn1cnc2c(N)ncnc21)CC(=O)O | > 200 µM
11 | CC(C)(C)OC(=O)N(CCCn1cnc2c(N)ncnc21)CC(=O)NO | > 200 µM
12 | Nc1ncnc2c1ncn2CCCNCC(=O)NO | > 200 µM
13 | COC(=O)CCCCn1cnc2c(N)ncnc21 | > 200 µM
14 | Nc1ncnc2c1ncn2CCCCCCC(=O)NO | > 200 µM
15 | Nc1ncnc2c1ncn2CCCCCC(=O)O | > 200 µM
16 | COC(=O)CN(CCn1cnc2c(N)ncnc21)C(=O)OC(C)(C)C | > 200 µM

Other lines, results leading:

Row | IC50 | SMILES
17 | 15.3 µM | CN(CCn1cnc2c(N)ncnc21)CC(=O)NO
18 | > 200 µM | Nc1ncnc2c1ncn2CCNCC(=O)NO
19 | > 200 µM | CCOC(=O)COCCCn1cnc2c(N)ncnc21
20 | 7.6 µM | Nc1ncnc2c1ncn2CCCCC(=O)NO
21 | > 200 µM | CC(=O)N(CCn1cnc2c(N)ncnc21)CC(=O)O
22 | > 200 µM | CC(=O)N(CCn1cnc2c(N)ncnc21)CC(=O)NO
23 | > 200 µM | CCOC(=O)CCCCCCn1cnc2c(N)ncnc21
24 | > 200 µM | COC(=O)CN(C)CCn1cnc2c(N)ncnc21
25 | > 200 µM | CC(C)(C)OC(=O)N(CCCn1cnc2c(N)ncnc21)CC(=O)O
26 | 7.9 µM | Nc1ncnc2c1ncn2CCCC(=O)NO
27 | > 200 µM | Nc1ncnc2c1ncn2CCCNCC(=O)O
28 | 94 µM | Nc1ncnc2c1ncn2CCCOCC(=O)NO
29 | 35.4 µM | Nc1ncnc2c1ncn2CCCCCC(=O)NO
30 | 140 µM | Nc1ncnc2c1ncn2CCCOCC(=O)O
